The series deals with SNHG14. Conditions: ASO.
Setting [1] is: Mouse Primary Neuronal Cell, 0.005 µM.

After the bases stand the sugars from the 5' end (letter, count) and the backbone: PS all phosphorothioate, else s phosphorothioate and o phosphodiester by linkage. Methylation of C is not given here. l = locked nucleic acid (LNA); d = 2'-deoxy (DNA)

Regarding “AATTTTTTTCTTACTATCTT (sugars llllddldddddddldddll, PS)”, the target mRNA inhibition (Human Neuronal Cell, 7.5 µM) worked out at 49%.

For the sequence ACAACTATTATCTTCT (sugars l3 d10 l3, PS), the target mRNA inhibition by setting is: (Human Neuronal Cell, 0.2 µM) 40%; (Human Neuronal Cell, 1 µM) 57%.

Regarding ACATCTCATACTTGCT (sugars l2 d11 l3, PS), the target mRNA inhibition under setting [1] is 96.3%.

Take “ACATCTCATACTTGCTT (sugars l2 d12 l3, PS)”: under setting [1], the target mRNA inhibition came out at 96.9%.

Regarding “ACATTATTATTTAACCT (sugars l3 d11 l3, PS)”, the target mRNA inhibition came to 6% (Human Neuronal Cell, 0.2 µM) and 17% (Human Neuronal Cell, 1 µM).

“ACCACCTAAGACCTCAA (sugars l2 d11 l4, PS)”: the target mRNA inhibition is, setting by setting: (Human Neuronal Cell, 0.2 µM) 38%; (Human Neuronal Cell, 1 µM) 60%.

In the case of “ACCAGCTACAGGAACCTC (sugars l3 d12 l3, PS)”, the target mRNA inhibition (Human Neuronal Cell, 0.2 µM) was -35%; the target mRNA inhibition (Human Neuronal Cell, 1 µM) is -33%; the target mRNA inhibition (Human Neuronal Cell, 5 µM) was -60%.

With ACCTTAAGTAACATTT (sugars l4 d10 l2, PS), the target mRNA inhibition came to 36% (Human Neuronal Cell, 0.2 µM) and 44% (Human Neuronal Cell, 1 µM).

For ACTAATGCAATAACCC (sugars l3 d10 l3, PS), the target mRNA inhibition was determined as 45% (Human Neuronal Cell, 0.2 µM) and 28% (Human Neuronal Cell, 1 µM).

With “ACTCTCACTGTAACTTT (sugars l4 d11 l2, PS)”, the target mRNA inhibition (Human Neuronal Cell, 0.2 µM) turned out to be 21% and the target mRNA inhibition (Human Neuronal Cell, 1 µM) turned out to be 35%.

As to “ACTCTGCAATACACCAA (sugars llddlddddddldldll, PS)”, the target mRNA inhibition (Human Neuronal Cell, 7.5 µM) amounted to 33%.

“ACTGTTTATACCCTTTC (sugars l4 d11 l2, PS)”: the target mRNA inhibition by setting is: (Human Neuronal Cell, 0.2 µM) 43%; (Human Neuronal Cell, 1 µM) 51%.

As to “ACTGTTTATACCCTTTCC (sugars l1 d15 l2, PS)”, the target mRNA inhibition (Human Neuronal Cell, 7.5 µM) was 40%.

Turning to “AGATCATTCTCAACAATT (sugars l1 d3 l2 d6 l6, PS)”, the target mRNA inhibition (Human Neuronal Cell, 7.5 µM) stood at 54%.

On to “AGATCATTCTCAACAATT (sugars l2 d1 l3 d10 l2, PS)”, for which, under “Human Neuronal Cell, 7.5 µM”, the target mRNA inhibition is 46%.

As to “AGATCATTCTCAACAATT (sugars ldllllddddddldddll, PS)”, the target mRNA inhibition (Human Neuronal Cell, 7.5 µM) worked out at 48%.

For “AGATCATTCTCAACAATTA (sugars ldddllddddddldlddll, PS)”, where the note is “Human Neuronal Cell, 7.5 µM”, the target mRNA inhibition was 62%.

Turning to “AGCAACATTATTAACCAC (sugars l2 d10 l2 d1 l3, PS)”, where the note is “Human Neuronal Cell, 7.5 µM”, the target mRNA inhibition was 44%.

As for “AGCAACATTATTAACCAC (sugars ldllldddddddllldll, PS)”, the target mRNA inhibition (Human Neuronal Cell, 7.5 µM) came to 35%.

In the case of “AGCAACATTATTAACCACC (sugars lddldlddddddldddlll, PS)”, the target mRNA inhibition (Human Neuronal Cell, 7.5 µM) was 52%.

For “AGCAACATTATTAACCACC (sugars ldldlddddddddlddlll, PS)”, the target mRNA inhibition (Human Neuronal Cell, 7.5 µM) was 53%.

With “AGCTTTTAACCAGAGTGG (sugars l1 d14 l3, PS)”, the target mRNA inhibition (Human Neuronal Cell, 7.5 µM) turned out to be 66%.

Consider “AGTTCTACTATACTTTC (sugars l1 d2 l2 d8 l4, PS)”, for which the target mRNA inhibition (Human Neuronal Cell, 7.5 µM) turned out to be 57%.

For “AGTTCTACTATACTTTC (sugars l2 d1 l2 d10 l2, PS)”, the target mRNA inhibition (Human Neuronal Cell, 7.5 µM) came to 58%.

For “AGTTCTACTATACTTTC (sugars llddlddddddldllll, PS)”, the target mRNA inhibition (Human Neuronal Cell, 7.5 µM) is 18%.

“AGTTCTACTATACTTTCC (sugars ldlddddddddddlddll, PS)”: where the note is “Human Neuronal Cell, 7.5 µM”, the target mRNA inhibition turned out to be 61%.

With “ATAACATTACTCTTAACA (sugars l3 d12 l3, PS)”, the target mRNA inhibition runs as follows: (Human Neuronal Cell, 0.2 µM) 22%; (Human Neuronal Cell, 1 µM) 40%.

Take “ATACCTTTCTTTAACCC (sugars l4 d11 l2, PS)”: the target mRNA inhibition by setting is: (Human Neuronal Cell, 0.2 µM) 60%; (Human Neuronal Cell, 1 µM) 67%.

For the sequence “ATATCCCTTGATTATCC (sugars l3 d11 l3, PS)”, the target mRNA inhibition (Human Neuronal Cell, 0.2 µM) was 16% and the target mRNA inhibition (Human Neuronal Cell, 1 µM) was 18%.

Consider “ATATTGATTCAATTCCC (sugars l1 d1 l2 d8 l5, PS)”, for which the target mRNA inhibition (Human Neuronal Cell, 7.5 µM) was 64%.

On to “ATATTGATTCAATTCCC (sugars l4 d7 l1 d3 l2, PS)”, for which, for the setting “Human Neuronal Cell, 7.5 µM”, the target mRNA inhibition worked out at 67%.

As to “ATATTGATTCAATTCCC (sugars llldldddddddlddll, PS)”, where the note is “Human Neuronal Cell, 7.5 µM”, the target mRNA inhibition came out at 52%.

As for “ATCATTCTCAACAATTAA (sugars l1 d1 l4 d6 l6, PS)”, for the setting “Human Neuronal Cell, 7.5 µM”, the target mRNA inhibition was 4%.

As to “ATCATTCTCAACAATTAA (sugars l4 d8 l1 d1 l4, PS)”, the target mRNA inhibition (Human Neuronal Cell, 7.5 µM) is 53%.

Take “ATCATTCTCAACAATTAA (sugars l5 d8 l1 d1 l3, PS)”: the target mRNA inhibition (Human Neuronal Cell, 7.5 µM) is 59%.

“ATCATTCTCAACAATTAAA (sugars l5 d8 l2 d2 l2, PS)”: the target mRNA inhibition (Human Neuronal Cell, 7.5 µM) is 57%.

Regarding ATCCAAAGTTTCTTTC (sugars l4 d10 l2, PS), the target mRNA inhibition came out at 43% (Human Neuronal Cell, 0.2 µM) and 34% (Human Neuronal Cell, 1 µM).

In the case of ATCCTATGTTAATACT (sugars l4 d10 l2, PS), the target mRNA inhibition (Human Neuronal Cell, 0.2 µM) is 14% and the target mRNA inhibition (Human Neuronal Cell, 1 µM) was 33%.

For the sequence ATCCTGATAATTAACT (sugars l4 d10 l2, PS), the target mRNA inhibition runs as follows: (Human Neuronal Cell, 0.2 µM) -8%; (Human Neuronal Cell, 1 µM) 5%.

Turning to “ATCTCATGACCACCTAA (sugars l3 d10 l1 d1 l2, PS)”, the target mRNA inhibition (Human Neuronal Cell, 7.5 µM) is 60%.

Take “ATCTCATGACCACCTAA (sugars ldldddddddddldlll, PS)”: the target mRNA inhibition (Human Neuronal Cell, 7.5 µM) was determined as 61%.

In the case of “ATCTCATGACCACCTAA (sugars ldlddddddddlddlll, PS)”, for the setting “Human Neuronal Cell, 7.5 µM”, the target mRNA inhibition amounted to 52%.

Consider ATCTGATCTCACACAT (sugars l3 d10 l3, PS), for which the target mRNA inhibition (Human Neuronal Cell, 0.2 µM) was 22% and the target mRNA inhibition (Human Neuronal Cell, 1 µM) was 40%.

With “ATCTTTCCATTTATTTCCA (sugars lddlddddddddddlddll, PS)”, the target mRNA inhibition (Human Neuronal Cell, 7.5 µM) is 44%.

In the case of “ATCTTTCCATTTATTTCCAT (sugars l1 d16 l3, PS)”, the target mRNA inhibition (Human Neuronal Cell, 7.5 µM) amounted to 15%.

For the sequence ATGCTCACACTAATTA (sugars l4 d10 l2, PS), the target mRNA inhibition turned out to be 35% (Human Neuronal Cell, 0.2 µM) and 48% (Human Neuronal Cell, 1 µM).

“ATTGATTCAATTCCCTT (sugars ldldldddddddlldll, PS)”: under “Human Neuronal Cell, 7.5 µM”, the target mRNA inhibition was determined as 65%.

As for “ATTGATTCAATTCCCTT (sugars llddlddddddddldll, PS)”, the target mRNA inhibition (Human Neuronal Cell, 7.5 µM) came to 64%.

With “ATTGATTCAATTCCCTT (sugars llddldddddddldlll, PS)”, the target mRNA inhibition (Human Neuronal Cell, 7.5 µM) worked out at 50%.

“ATTTACACTTAATTATACTT (sugars ldllddlddddddlllldll, PS)”: the target mRNA inhibition (Human Neuronal Cell, 7.5 µM) amounted to 12%.

For the sequence “ATTTACACTTAATTATACTT (sugars lldlddlddddddllldlll, PS)”, the target mRNA inhibition (Human Neuronal Cell, 7.5 µM) worked out at 10%.

Take “ATTTATTTCCATTTATTTTC (sugars lldldlddddddddldldll, PS)”: the target mRNA inhibition (Human Neuronal Cell, 7.5 µM) turned out to be 55%.

As for “ATTTCATTAAGTCACCC (sugars l3 d11 l3, PS)”, the target mRNA inhibition runs as follows: (Human Neuronal Cell, 0.2 µM) 51%; (Human Neuronal Cell, 1 µM) 53%.

For “ATTTCTCTATGTCACAT (sugars l3 d11 l3, PS)”, the target mRNA inhibition (Human Neuronal Cell, 0.2 µM) was found to be 31% and the target mRNA inhibition (Human Neuronal Cell, 1 µM) turned out to be 35%.

For “ATTTTTTTCTTACTATCTTC (sugars ldddddlddddddldddlll, PS)”, the target mRNA inhibition (Human Neuronal Cell, 7.5 µM) amounted to 43%.

In the case of “ATTTTTTTCTTACTATCTTC (sugars lddddlddddddddldldll, PS)”, the target mRNA inhibition (Human Neuronal Cell, 7.5 µM) worked out at 63%.

“ATTTTTTTCTTACTATCTTC (sugars ldlddldddddddddddlll, PS)”: the target mRNA inhibition (Human Neuronal Cell, 7.5 µM) was 56%.

In the case of “ATTTTTTTCTTACTATCTTC (sugars llddldldddddddldddll, PS)”, the target mRNA inhibition (Human Neuronal Cell, 7.5 µM) was determined as 49%.

On to “CAAAGATCATTCTCAAC (sugars l5 d6 l1 d1 l4, PS)”, for which the target mRNA inhibition (Human Neuronal Cell, 7.5 µM) was determined as 22%.

For “CAAAGATCATTCTCAACA (sugars l1 d4 l1 d7 l5, PS)”, the target mRNA inhibition (Human Neuronal Cell, 7.5 µM) was 65%.

Take “CAAAGATCATTCTCAACA (sugars l3 d1 l2 d10 l2, PS)”: where the note is “Human Neuronal Cell, 7.5 µM”, the target mRNA inhibition turned out to be 61%.

As for “CAACATTATTAACCACCTT (sugars l1 d2 l1 d12 l3, PS)”, where the note is “Human Neuronal Cell, 7.5 µM”, the target mRNA inhibition was 53%.

“CAACATTATTAACCACCTT (sugars l2 d10 l2 d3 l2, PS)”: the target mRNA inhibition (Human Neuronal Cell, 7.5 µM) came out at 43%.

On to “CAACATTATTAACCACCTT (sugars lldlldddddddddldlll, PS)”, for which, for the setting “Human Neuronal Cell, 7.5 µM”, the target mRNA inhibition is 49%.

Regarding “CAACATTATTAACCACCTTA (sugars l1 d15 l4, PS)”, the target mRNA inhibition (Human Neuronal Cell, 7.5 µM) was found to be 36%.

For the sequence “CAACATTATTAACCACCTTA (sugars l2 d4 l1 d11 l2, PS)”, the target mRNA inhibition (Human Neuronal Cell, 7.5 µM) turned out to be 37%.

In the case of “CAACATTATTAACCACCTTA (sugars llddlddddddddddldlll, PS)”, the target mRNA inhibition (Human Neuronal Cell, 7.5 µM) was 47%.

Turning to CAACATTATTGACACT (sugars l2 d10 l4, PS), the target mRNA inhibition amounted to 45% (Human Neuronal Cell, 0.2 µM) and 61% (Human Neuronal Cell, 1 µM).

Consider “CAACTCTCACTGTAACT (sugars l4 d11 l2, PS)”, for which the target mRNA inhibition (Human Neuronal Cell, 0.2 µM) is 47% and the target mRNA inhibition (Human Neuronal Cell, 1 µM) is 49%.

On to “CACAATCAACAACAAATA (sugars l4 d12 l2, PS)”, for which the target mRNA inhibition is, setting by setting: (Human Neuronal Cell, 0.2 µM) 40%; (Human Neuronal Cell, 1 µM) 54%.

Take CACCACTGATTTCCTT (sugars l3 d10 l3, PS): the target mRNA inhibition reads like this: (Human Neuronal Cell, 0.2 µM) 43%; (Human Neuronal Cell, 1 µM) 53%.

For CACCTGATAACAGACC (sugars l3 d10 l3, PS), the target mRNA inhibition is -22% (Human Neuronal Cell, 0.2 µM); 7% (Human Neuronal Cell, 1 µM); 27% (Human Neuronal Cell, 5 µM).

Regarding “CAGCAGGCAGATAACCTC (sugars l3 d12 l3, PS)”, the target mRNA inhibition is -4% (Human Neuronal Cell, 0.2 µM); 18% (Human Neuronal Cell, 1 µM); 21% (Human Neuronal Cell, 5 µM).

In the case of “CAGCATTCAACCCTAAT (sugars l3 d12 l2, PS)”, the target mRNA inhibition is, setting by setting: (Human Neuronal Cell, 0.2 µM) 40%; (Human Neuronal Cell, 1 µM) 54%.

For the sequence CAGCCATAAACTATAT (sugars l4 d10 l2, PS), the target mRNA inhibition reads like this: (Human Neuronal Cell, 0.2 µM) 15%; (Human Neuronal Cell, 1 µM) 7%.

Turning to CAGCTATTCAATAAAC (sugars l4 d10 l2, PS), the target mRNA inhibition came out at 8% (Human Neuronal Cell, 0.2 µM) and 7% (Human Neuronal Cell, 1 µM).

On to “CAGCTTTTAACCAGAGTGG (sugars l1 d15 l3, PS)”, for which, for the setting “Human Neuronal Cell, 7.5 µM”, the target mRNA inhibition is 69%.

For the sequence “CAGCTTTTAACCAGAGTGGC (sugars l1 d17 l2, PS)”, where the note is “Human Neuronal Cell, 7.5 µM”, the target mRNA inhibition is 40%.

The record behind these values is the OligoGym collection.
